From US12433953B2, “Compositions and methods related to tumor activated antibodies targeting EGFR and effector cell antigens” (Janux Therapeutics, Inc., priority 2021, dated 2025)
pEC50, pIC50: −log10 of the molar value. Like-named read-outs stand apart in the source and are kept apart here.

Key:
[1] = molecular target: EGFR Fab binding to the EGFR antigen; assay: ELISA competitive inhibition of EGFR Fab binding to EGFR antigen
EGFR Fab = assay: ELISA binding of peptides to EGFR Fab; conditions: for pEC50: read-out: EC50 for peptide binding to αEGFR Fab; for binding affinity for EGFR Fab (in words): among peptides of Table 14
[2] = read-out: IC50 for peptide inhibition of αEGFR Fab binding to EGFR antigen, Table 27, peptide-8 optimization
[3] = Table 25, peptide-8 optimization
[4] = Table 21, peptide-8 alanine scanning mutants, read-out: IC50
[5] = Table 20, peptide-8 alanine scanning mutants, read-out: IC50
[6] = read-out: IC50 for peptide inhibition of αEGFR Fab binding to EGFR antigen, Table 17

CC[C@H](C)[C@@H]1NC(=O)[C@@H]2CCCN2C(=O)[C@H](CCCCN)NC(=O)[C@H](C)NC(=O)[C@@H]2CCCN2C(=O)[C@H](CC(=O)O)NC(=O)[C@H](CC(N)=O)NC(=O)[C@H](Cc2c[nH]cn2)NC(=O)[C@H](CO)NC(=O)[C@H](CC(C)C)NC(=O)[C@@H](NC(=O)[C@@H]2CCCN2)CSSC[C@@H](C(=O)N[C@@H](C)C(=O)O)NC1=O [Peptide-41]
pIC50 [1, 2]: 5.37
pEC50 (EGFR Fab; [3]): 6.53

CC[C@H](C)[C@@H]1NC(=O)[C@H](Cc2c[nH]cn2)NC(=O)[C@H](CO)NC(=O)[C@H](CCCNC(=N)N)NC(=O)[C@@H](NC(=O)[C@@H]2CCCN2)CSSC[C@@H](C(=O)N[C@H](C(=O)O)C(C)C)NC(=O)[C@H]([C@@H](C)CC)NC(=O)[C@@H]2CCCN2C(=O)[C@H](CCCCN)NC(=O)[C@H](C)NC(=O)[C@H](C(C)C)NC(=O)[C@H](CC(=O)O)NC1=O [Peptide-8]
inhibiting EGFR Fab binding to the EGFR antigen (in words) ([1]; among peptides of Table 14): most effective at inhibiting EGFR Fab binding to the EGFR antigen
binding affinity for EGFR Fab (in words) (EGFR Fab): strongest binding affinities (lowest EC50s)
pEC50 (EGFR Fab; Table 15): 8.10
pEC50 (EGFR Fab; Table 24, peptide-8 optimization): 6.16

CC[C@H](C)[C@@H]1NC(=O)[C@H](Cc2c[nH]cn2)NC(=O)[C@H](CO)NC(=O)[C@H](CCCNC(=N)N)NC(=O)[C@@H](NC(=O)[C@@H]2CCCN2)CSSC[C@@H](C(=O)N[C@H](C(=O)O)C(C)C)NC(=O)[C@H](C)NC(=O)[C@@H]2CCCN2C(=O)[C@H](CCCCN)NC(=O)[C@H](C)NC(=O)[C@H](C(C)C)NC(=O)[C@H](CC(=O)O)NC1=O [Peptide-26]
pIC50 [1, 4]: < 4.00

CC[C@H](C)[C@@H]1NC(=O)[C@@H]2CCCN2C(=O)[C@H](CCCCN)NC(=O)[C@H](C)NC(=O)[C@H](C(C)C)NC(=O)[C@H](CC(=O)O)NC(=O)[C@H](C)NC(=O)[C@H](Cc2c[nH]cn2)NC(=O)[C@H](CO)NC(=O)[C@H](CCCNC(=N)N)NC(=O)[C@@H](NC(=O)[C@@H]2CCCN2)CSSC[C@@H](C(=O)N[C@H](C(=O)O)C(C)C)NC1=O [Peptide-21]
Fold shift in IC50 relative to Peptide-8 (IC50 Ala mutant/IC50 Peptide-8) ([1]; Table 20): 0.5
pIC50 [1, 5]: 5.71

CC[C@H](C)[C@@H]1NC(=O)[C@@H]2CCCN2C(=O)[C@H](CCCCN)NC(=O)[C@H](C)NC(=O)[C@H]([C@@H](C)O)NC(=O)[C@H](CC(=O)O)NC(=O)[C@H](Cc2ccccc2)NC(=O)[C@H](Cc2c[nH]cn2)NC(=O)[C@H](CO)NC(=O)[C@H]([C@@H](C)O)NC(=O)[C@@H](NC(=O)[C@@H]2CCCN2)CSSC[C@@H](C(=O)N[C@@H](C)C(=O)O)NC1=O [Peptide-39]
pIC50 [1, 2]: 5.55
pEC50 (EGFR Fab; [3]): 6.69

CC[C@H](C)[C@@H]1NC(=O)[C@H](CC(=O)O)NC(=O)[C@H](Cc2ccccc2)NC(=O)[C@H](Cc2c[nH]cn2)NC(=O)[C@H](CO)NC(=O)[C@H](CC(N)=O)NC(=O)[C@@H](NC(=O)[C@@H]2CCCN2)CSSC[C@@H](C(=O)N[C@@H](CC(C)C)C(=O)O)NC(=O)[C@H]([C@@H](C)CC)NC(=O)[C@@H]2CCCN2C(=O)[C@H](CCCCN)NC(=O)[C@H](C)NC1=O [Peptide-44]
pIC50 [1, 2]: 5.18
pEC50 (EGFR Fab; [3]): 6.47

CC[C@H](C)[C@@H]1NC(=O)[C@@H]2CCCN2C(=O)[C@H](CCCCN)NC(=O)[C@H](C)NC(=O)[C@H](CC(C)C)NC(=O)[C@H](CC(=O)O)NC(=O)[C@H](Cc2ccc(O)cc2)NC(=O)[C@H](Cc2c[nH]cn2)NC(=O)[C@H](CO)NC(=O)[C@H](CC(N)=O)NC(=O)[C@@H](NC(=O)[C@@H]2CCCN2)CSSC[C@@H](C(=O)N[C@H](C(=O)O)[C@@H](C)O)NC1=O [Peptide-43]
pIC50 [1, 2]: 5.37
pEC50 (EGFR Fab; [3]): 6.73

CC[C@H](C)[C@@H]1NC(=O)[C@H](Cc2c[nH]cn2)NC(=O)[C@H](CO)NC(=O)[C@H](CCCNC(=N)N)NC(=O)[C@@H](NC(=O)[C@@H]2CCCN2)CSSC[C@@H](C(=O)N[C@H](C(=O)O)C(C)C)NC(=O)[C@H]([C@@H](C)CC)NC(=O)[C@@H]2CCCN2C(=O)[C@H](C)NC(=O)[C@H](C)NC(=O)[C@H](C(C)C)NC(=O)[C@H](CC(=O)O)NC1=O [Peptide-24]
pIC50 [1, 4]: < 4.00

CC[C@H](C)[C@@H]1NC(=O)[C@H](Cc2c[nH]cn2)NC(=O)[C@H](CO)NC(=O)[C@H](CCCNC(=N)N)NC(=O)[C@@H](NC(=O)[C@H](C)N)CSSC[C@@H](C(=O)N[C@H](C(=O)O)C(C)C)NC(=O)[C@H]([C@@H](C)CC)NC(=O)[C@@H]2CCCN2C(=O)[C@H](CCCCN)NC(=O)[C@H](C)NC(=O)[C@H](C(C)C)NC(=O)[C@H](CC(=O)O)NC1=O [Peptide-17]
Fold shift in IC50 relative to Peptide-8 (IC50 Ala mutant/IC50 Peptide-8) ([1]; Table 20): 4.1
pIC50 [1, 5]: 4.80

CSCC[C@@H]1NC(=O)[C@H](CCCNC(=N)N)NC(=O)[C@H](C(C)C)NC(=O)[C@H](CCSC)NC(=O)[C@H](CCCNC(=N)N)NC(=O)[C@H](Cc2c[nH]cn2)NC(=O)[C@H](CC(C)C)NC(=O)CNC(=O)[C@H](CC(=O)O)NC(=O)CNC(=O)[C@@H](NC(=O)CN)CSSC[C@@H](C(=O)O)NC(=O)[C@H](Cc2c[nH]c3ccccc23)NC1=O [Peptide-12]
pIC50 [1, 6]: < 6.52
pEC50 (EGFR Fab; Table 15): < 6.00

CC[C@H](C)[C@@H]1NC(=O)[C@H](C)NC(=O)[C@H](CCCCN)NC(=O)[C@H](C)NC(=O)[C@H](C(C)C)NC(=O)[C@H](CC(=O)O)NC(=O)[C@H]([C@@H](C)CC)NC(=O)[C@H](Cc2c[nH]cn2)NC(=O)[C@H](CO)NC(=O)[C@H](CCCNC(=N)N)NC(=O)[C@@H](NC(=O)[C@@H]2CCCN2)CSSC[C@@H](C(=O)N[C@H](C(=O)O)C(C)C)NC1=O [Peptide-25]
pIC50 [1, 4]: < 4.00

CC(C)C[C@@H]1NC(=O)[C@H](CCC(N)=O)NC(=O)CNC(=O)[C@H](CCCNC(=N)N)NC(=O)[C@H](CCC(N)=O)NC(=O)[C@H](Cc2c[nH]c3ccccc23)NC(=O)[C@H](C(C)C)NC(=O)[C@H](CO)NC(=O)[C@H](CC(N)=O)NC(=O)[C@@H](NC(=O)[C@@H](N)Cc2ccc(O)cc2)CSSC[C@@H](C(=O)O)NC(=O)[C@H](Cc2c[nH]c3ccccc23)NC(=O)[C@H](Cc2ccc(O)cc2)NC1=O [Peptide-15]
pIC50 ([1]; read-out: IC50 for peptide inhibition of αEGFR Fab binding to EGFR antigen, Table 18): < 6.52
binding affinity for EGFR Fab (in words) (EGFR Fab): strongest binding affinities (lowest EC50s)
pEC50 (EGFR Fab; Table 16): 8.15

CC[C@H](C)[C@@H]1NC(=O)[C@H](Cc2c[nH]cn2)NC(=O)[C@H](CO)NC(=O)[C@H](CCCNC(=N)N)NC(=O)[C@@H](NC(=O)[C@@H]2CCCN2)CSSC[C@@H](C(=O)N[C@@H](C)C(=O)O)NC(=O)[C@H]([C@@H](C)CC)NC(=O)[C@@H]2CCCN2C(=O)[C@H](CCCCN)NC(=O)[C@H](C)NC(=O)[C@H](C(C)C)NC(=O)[C@H](CC(=O)O)NC1=O [Peptide-27]
Fold shift in IC50 relative to Peptide-8 (IC50 Ala mutant/IC50 Peptide-8) ([1]; Table 21): 2.2
pIC50 [1, 4]: 5.51

CC(C)C[C@H](NC(=O)[C@@H]1CSSC[C@H](NC(=O)[C@@H](N)Cc2c[nH]c3ccccc23)C(=O)N[C@@H]([C@@H](C)O)C(=O)N[C@@H](C(C)C)C(=O)N[C@@H](Cc2c[nH]c3ccccc23)C(=O)NCC(=O)N[C@@H](CC(=O)O)C(=O)N[C@@H](CCCNC(=N)N)C(=O)N[C@@H](CCC(N)=O)C(=O)N[C@@H](CCC(=O)O)C(=O)N[C@@H](C(C)C)C(=O)N[C@@H](CCCNC(=N)N)C(=O)N1)C(=O)O [Peptide-7]
pIC50 [1, 6]: < 6.52
pEC50 (EGFR Fab; Table 15): < 6.00

CC[C@H](C)[C@@H]1NC(=O)[C@H](Cc2c[nH]cn2)NC(=O)[C@H](CO)NC(=O)[C@H](CCCNC(=N)N)NC(=O)[C@@H](NC(=O)[C@@H]2CCCN2)CSSC[C@@H](C(=O)N[C@H](C(=O)O)C(C)C)NC(=O)[C@H]([C@@H](C)CC)NC(=O)[C@@H]2CCCN2C(=O)[C@H](CCCCN)NC(=O)[C@H](C)NC(=O)[C@H](C)NC(=O)[C@H](CC(=O)O)NC1=O [Peptide-23]
Fold shift in IC50 relative to Peptide-8 (IC50 Ala mutant/IC50 Peptide-8) ([1]; Table 21): 2.7
pIC50 [1, 4]: 5.42

CC[C@H](C)[C@@H]1NC(=O)[C@H](Cc2c[nH]cn2)NC(=O)[C@H](CO)NC(=O)[C@H](C)NC(=O)[C@@H](NC(=O)[C@@H]2CCCN2)CSSC[C@@H](C(=O)N[C@H](C(=O)O)C(C)C)NC(=O)[C@H]([C@@H](C)CC)NC(=O)[C@@H]2CCCN2C(=O)[C@H](CCCCN)NC(=O)[C@H](C)NC(=O)[C@H](C(C)C)NC(=O)[C@H](CC(=O)O)NC1=O [Peptide-18]
Fold shift in IC50 relative to Peptide-8 (IC50 Ala mutant/IC50 Peptide-8) ([1]; Table 20): 1.4
pIC50 [1, 5]: 5.25

CC[C@H](C)[C@@H]1NC(=O)[C@H](Cc2c[nH]cn2)NC(=O)[C@H](CO)NC(=O)[C@H](CCCNC(=N)N)NC(=O)[C@@H](NC(=O)[C@@H]2CCCN2)CSSC[C@@H](C(=O)N[C@H](C(=O)O)C(C)C)NC(=O)[C@H]([C@@H](C)CC)NC(=O)[C@@H]2CCCN2C(=O)[C@H](CCCCN)NC(=O)[C@H](C)NC(=O)[C@H](C(C)C)NC(=O)[C@H](C)NC1=O [Peptide-22]
pIC50 [1, 5]: < 4.00

CC[C@H](C)[C@@H]1NC(=O)[C@H](Cc2c[nH]cn2)NC(=O)[C@H](C)NC(=O)[C@H](CCCNC(=N)N)NC(=O)[C@@H](NC(=O)[C@@H]2CCCN2)CSSC[C@@H](C(=O)N[C@H](C(=O)O)C(C)C)NC(=O)[C@H]([C@@H](C)CC)NC(=O)[C@@H]2CCCN2C(=O)[C@H](CCCCN)NC(=O)[C@H](C)NC(=O)[C@H](C(C)C)NC(=O)[C@H](CC(=O)O)NC1=O [Peptide-19]
Fold shift in IC50 relative to Peptide-8 (IC50 Ala mutant/IC50 Peptide-8) ([1]; Table 20): 24
pIC50 [1, 5]: 4.03

CC[C@H](C)[C@@H]1NC(=O)[C@H](C)NC(=O)[C@H](CO)NC(=O)[C@H](CCCNC(=N)N)NC(=O)[C@@H](NC(=O)[C@@H]2CCCN2)CSSC[C@@H](C(=O)N[C@H](C(=O)O)C(C)C)NC(=O)[C@H]([C@@H](C)CC)NC(=O)[C@@H]2CCCN2C(=O)[C@H](CCCCN)NC(=O)[C@H](C)NC(=O)[C@H](C(C)C)NC(=O)[C@H](CC(=O)O)NC1=O [Peptide-20]
Fold shift in IC50 relative to Peptide-8 (IC50 Ala mutant/IC50 Peptide-8) ([1]; Table 20): 2.8
pIC50 [1, 5]: 4.96
